Source: US12227488B2, “Small molecule degraders of Helios and methods of use” (DANA-FARBER CANCER INSTITUTE, INC., priority 2018, dated 2025)

Assays:
[1] = target: T1, IKZF1 (Homo sapiens, UniProt Q13422); assay: Cellular degradation assay, eGFP-IKZF1Δ fusion with mCherry reporter in Flp-In 293 cells; assay type: cell-based; conditions: for IKZF1 GFP/RFP Relative Abundance: 5 h incubation, n=1; for DC50: half degradation at 5 h (DC50,5 h), triplicate, 11 point dose response
T1 construct: expressed in transfected cells; host or cells: Flp-In 293
T1 sequence (Q13422 83-213 isoform Q13422-7 limits assumed): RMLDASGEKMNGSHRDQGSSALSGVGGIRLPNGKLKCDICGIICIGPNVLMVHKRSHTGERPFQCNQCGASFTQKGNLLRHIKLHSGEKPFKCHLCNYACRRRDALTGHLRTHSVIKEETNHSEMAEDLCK
T1 sequence (Q96SW2 whole entry partner, the tested form may be a part): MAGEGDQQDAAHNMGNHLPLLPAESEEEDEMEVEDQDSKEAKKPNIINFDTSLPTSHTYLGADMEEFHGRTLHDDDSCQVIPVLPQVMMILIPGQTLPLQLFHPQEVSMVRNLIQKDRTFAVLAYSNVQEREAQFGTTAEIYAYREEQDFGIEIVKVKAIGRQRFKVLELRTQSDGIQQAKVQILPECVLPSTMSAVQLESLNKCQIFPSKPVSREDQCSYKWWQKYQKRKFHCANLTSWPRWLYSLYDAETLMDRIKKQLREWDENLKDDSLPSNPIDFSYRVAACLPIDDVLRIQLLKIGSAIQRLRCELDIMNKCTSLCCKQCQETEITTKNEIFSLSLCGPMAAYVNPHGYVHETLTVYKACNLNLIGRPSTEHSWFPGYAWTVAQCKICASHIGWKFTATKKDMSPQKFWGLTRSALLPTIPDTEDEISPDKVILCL
T1 sequence (Q16531 2-1140 partner limits assumed): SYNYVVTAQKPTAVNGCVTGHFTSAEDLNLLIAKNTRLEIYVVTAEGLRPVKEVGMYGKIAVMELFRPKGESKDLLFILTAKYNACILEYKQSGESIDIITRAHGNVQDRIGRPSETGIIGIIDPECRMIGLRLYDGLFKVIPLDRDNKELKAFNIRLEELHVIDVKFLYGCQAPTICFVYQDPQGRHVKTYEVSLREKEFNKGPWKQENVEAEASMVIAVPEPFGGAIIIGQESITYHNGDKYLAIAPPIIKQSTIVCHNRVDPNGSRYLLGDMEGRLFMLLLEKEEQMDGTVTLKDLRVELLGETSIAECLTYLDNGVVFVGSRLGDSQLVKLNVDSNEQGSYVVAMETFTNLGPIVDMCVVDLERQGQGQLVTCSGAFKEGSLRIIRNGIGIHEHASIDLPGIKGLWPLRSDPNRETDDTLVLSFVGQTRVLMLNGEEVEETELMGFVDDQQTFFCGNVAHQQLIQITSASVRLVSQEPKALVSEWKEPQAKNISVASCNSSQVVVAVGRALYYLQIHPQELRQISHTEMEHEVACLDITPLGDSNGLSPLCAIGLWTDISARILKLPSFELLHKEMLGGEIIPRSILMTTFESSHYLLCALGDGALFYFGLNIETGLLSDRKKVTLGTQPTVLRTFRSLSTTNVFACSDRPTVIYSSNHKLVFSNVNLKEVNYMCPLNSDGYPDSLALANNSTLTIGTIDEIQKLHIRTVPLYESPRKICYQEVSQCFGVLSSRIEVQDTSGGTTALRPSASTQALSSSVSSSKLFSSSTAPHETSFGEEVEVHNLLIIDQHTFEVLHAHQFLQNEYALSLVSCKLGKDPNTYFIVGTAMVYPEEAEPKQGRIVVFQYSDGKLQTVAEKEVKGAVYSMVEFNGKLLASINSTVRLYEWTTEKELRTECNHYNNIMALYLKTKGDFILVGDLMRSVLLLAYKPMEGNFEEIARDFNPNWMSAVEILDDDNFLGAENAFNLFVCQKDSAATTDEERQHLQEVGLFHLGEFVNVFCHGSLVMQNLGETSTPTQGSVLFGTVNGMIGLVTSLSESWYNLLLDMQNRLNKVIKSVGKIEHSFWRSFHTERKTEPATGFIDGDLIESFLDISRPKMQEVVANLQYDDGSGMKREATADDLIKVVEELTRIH
Method in brief: (§1)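 DC50,5 h derived by variable-slope nonlinear fit of the per-well ratio of GFP-positive to mCherry-positive cells, imaged after 5 h compound exposure at 0.5% DMSO.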

[2] = tested on: IKZF2; assay: Cellular degradation assay, eGFP-IKZF2Δ fusion with mCherry reporter in Flp-In 293 cells; assay type: cell-based; conditions: for IKZF2 GFP/RFP Relative Abundance: 5 h incubation, n=1; for DC50: half degradation at 5 h (DC50,5 h), triplicate, 11 point dose response
Method in brief: as §1

[3] = target: T2, CRBN and Helios (IKZF2) (Homo sapiens, UniProt Q96SW2+Q9UKS7); assay: TR-FRET dimerization assay (CRBN-IKZF2 ternary complex formation); assay type: binding; conditions: n=1
T2 construct: His (N); Strep (N)
T2 sequence (Q96SW2 whole entry): as the sequence (Q96SW2 whole entry partner, the tested form may be a part) above
T2 sequence (Q9UKS7 whole entry): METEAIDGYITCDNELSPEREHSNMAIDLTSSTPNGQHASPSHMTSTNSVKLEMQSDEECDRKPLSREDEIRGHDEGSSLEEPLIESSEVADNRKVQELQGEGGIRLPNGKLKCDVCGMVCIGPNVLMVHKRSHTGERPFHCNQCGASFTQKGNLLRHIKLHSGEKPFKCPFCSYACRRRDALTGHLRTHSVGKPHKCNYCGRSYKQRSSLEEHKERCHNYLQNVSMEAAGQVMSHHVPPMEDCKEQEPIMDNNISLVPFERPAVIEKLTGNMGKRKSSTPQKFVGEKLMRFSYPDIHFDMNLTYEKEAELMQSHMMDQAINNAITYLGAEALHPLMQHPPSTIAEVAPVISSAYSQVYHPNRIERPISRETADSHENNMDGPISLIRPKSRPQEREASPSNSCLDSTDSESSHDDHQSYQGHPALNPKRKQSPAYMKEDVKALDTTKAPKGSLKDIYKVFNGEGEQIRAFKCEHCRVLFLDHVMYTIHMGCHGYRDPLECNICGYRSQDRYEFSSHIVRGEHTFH
Method in brief: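 Compound-induced IKZF2 recruitment to CRBN was read as the 520/490 nm TR-FRET ratio after 15 min at rt. The mix held biotinylated IKZF2, BODIPY-labeled CRBN bound to DDB1 lacking the BPB propeller, tracer Tb-streptavidin and compound titrations; n=1, from ≥3 technical replicates per well.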

[4] = target: GSPT1 (Homo sapiens, UniProt P15170+Q96SW2); assay: Cellular degradation assay, eGFP-GSPT1 fusion with mCherry reporter in Flp-In 293 cells; assay type: cell-based; set-up: expressed in transfected cells; host or cells: Flp-In 293; conditions: for DC50: half degradation at 5 h (DC50,5 h), triplicate, 11 point dose response; for GSPT1 GFP/RFP Relative Abundance: 5 h incubation, n=1
Chain of GSPT1 (P15170 whole entry, the tested form may be a part): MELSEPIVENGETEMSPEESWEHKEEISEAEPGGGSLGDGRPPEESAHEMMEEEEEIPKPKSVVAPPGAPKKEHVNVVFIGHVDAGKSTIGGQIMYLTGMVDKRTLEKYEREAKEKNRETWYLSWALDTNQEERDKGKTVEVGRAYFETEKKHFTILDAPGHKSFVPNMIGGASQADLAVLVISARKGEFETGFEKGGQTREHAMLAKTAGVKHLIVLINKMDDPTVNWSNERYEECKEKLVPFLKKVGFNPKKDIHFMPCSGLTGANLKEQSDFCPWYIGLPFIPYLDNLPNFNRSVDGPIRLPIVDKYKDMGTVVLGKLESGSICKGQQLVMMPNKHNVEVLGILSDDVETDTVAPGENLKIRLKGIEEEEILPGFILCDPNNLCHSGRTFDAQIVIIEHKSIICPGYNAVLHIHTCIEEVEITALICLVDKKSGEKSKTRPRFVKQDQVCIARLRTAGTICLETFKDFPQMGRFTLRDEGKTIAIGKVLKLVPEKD
Chain of GSPT1 (Q96SW2 whole entry, the tested form may be a part): as the sequence (Q96SW2 whole entry partner, the tested form may be a part) above
Chain of GSPT1 (Q16531 whole entry partner, the tested form may be a part): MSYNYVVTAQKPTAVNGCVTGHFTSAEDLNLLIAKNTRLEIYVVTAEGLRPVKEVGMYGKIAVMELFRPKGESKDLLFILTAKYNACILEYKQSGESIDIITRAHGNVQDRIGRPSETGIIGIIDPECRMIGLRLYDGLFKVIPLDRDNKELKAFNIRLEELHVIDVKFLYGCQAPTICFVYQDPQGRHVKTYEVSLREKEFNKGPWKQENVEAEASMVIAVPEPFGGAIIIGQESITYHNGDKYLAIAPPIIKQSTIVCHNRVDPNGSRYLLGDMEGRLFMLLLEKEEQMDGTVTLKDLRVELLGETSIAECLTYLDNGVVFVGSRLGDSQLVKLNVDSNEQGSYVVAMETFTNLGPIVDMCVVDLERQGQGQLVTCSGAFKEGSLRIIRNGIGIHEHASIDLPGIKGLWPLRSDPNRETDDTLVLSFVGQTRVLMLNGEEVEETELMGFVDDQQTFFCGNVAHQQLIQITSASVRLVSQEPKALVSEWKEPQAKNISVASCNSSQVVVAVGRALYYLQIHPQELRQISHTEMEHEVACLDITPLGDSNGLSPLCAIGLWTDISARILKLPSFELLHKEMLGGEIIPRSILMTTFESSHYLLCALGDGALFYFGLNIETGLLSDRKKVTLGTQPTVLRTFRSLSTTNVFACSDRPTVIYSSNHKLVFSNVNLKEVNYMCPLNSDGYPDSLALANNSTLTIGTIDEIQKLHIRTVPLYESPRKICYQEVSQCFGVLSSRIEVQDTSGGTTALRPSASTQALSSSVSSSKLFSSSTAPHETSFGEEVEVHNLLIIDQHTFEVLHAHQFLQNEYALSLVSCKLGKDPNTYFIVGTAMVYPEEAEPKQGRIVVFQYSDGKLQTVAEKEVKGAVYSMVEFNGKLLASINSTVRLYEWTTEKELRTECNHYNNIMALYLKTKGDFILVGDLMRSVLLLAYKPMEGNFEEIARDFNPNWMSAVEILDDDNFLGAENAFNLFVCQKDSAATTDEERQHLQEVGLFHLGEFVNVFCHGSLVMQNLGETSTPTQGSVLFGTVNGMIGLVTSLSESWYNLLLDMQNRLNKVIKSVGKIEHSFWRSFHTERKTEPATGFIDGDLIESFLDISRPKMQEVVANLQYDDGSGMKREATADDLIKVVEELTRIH
Method: IKZF1Δ, IKZF2Δ, GSPT1 and SALL4 ZnF1-2 were subcloned into mammalian pcDNA5/FRT Vector (Ampicillin and Hygromycin B resistant) modified to contain MCS-eGFP-P2A-mCherry. […] Following 2-3 passage cycle, FACS (FACSAria™ II, BD) was used to enrich for cells expressing eGFP and mCherry. Cells stably expressing the IKZF1Δ, IKZF2Δ, GSPT1 or SALL4 Znf1-2 GFP fusions with mCherry reporter were seeded at 30-50% confluency in 384-well plates with 50 μL FluoroBrite™ DMEM media (Thermo Fisher Scientific, A18967) containing 10% FBS per well a day before compound treatment. Compound titrations were dispensed using a D300e Digital Dispenser (HP), normalized to 0.5% DMSO, and incubated with cells for 5 hours.
The resulting images were analyzed using CellProfiler™. A series of image analysis steps (‘image analysis pipeline’) was constructed. First, the red and green channels were aligned and cropped to target the middle of each well (to avoid analysis of heavily clumped cells at the edges), and a background illumination function was calculated for both red and green channels of each well individually and subtracted to correct for illumination variations across the 384-well plate from various sources of error. An additional step was then applied to the green channel to suppress the analysis of large auto fluorescent artifacts and enhance the analysis of cell specific fluorescence by way of selecting for objects under a given size, 30 A.U., and with a given shape, speckles. mCherry-positive cells were then identified in the red channel filtering for objects between 8-60 pixels in diameter and using intensity to distinguish between clumped objects. The green channel was then segmented into GFP positive and negative areas and objects were labeled as GFP positive if at least 40% of it overlapped with a GFP positive area. The fraction of GFP-positive cells/mCherry-positive cells in each well was then calculated, and the green and red images were rescaled for visualization.
The degradation assay was performed as described above. […] Degradation was measured after 5 h of compound treatment and the concentrations that lead to half degradation at 5 h (DC50,5 h) were calculated using the nonlinear fit variable slope model (GraphPad Software).

[5] = compound concentration 2.00E−05
[6] = compound concentration 2.00E−06
[7] = compound concentration 2.00E−07
[8] = compound concentration 6.6667E−05
[9] = compound concentration 6.6667E−06
[10] = compound concentration 6.6667E−07 (667 nM)

SMILES	IKZF1 GFP/RFP Relative Abundance [1, 5]	IKZF1 GFP/RFP Relative Abundance [1, 6]	IKZF1 GFP/RFP Relative Abundance [1, 7]	DC50 [1] [nM]	potency of IKZF2 degradation, in words ([2]; Table 3 summary)	IKZF2 GFP/RFP Relative Abundance [2, 5]	IKZF2 GFP/RFP Relative Abundance [2, 6]	IKZF2 GFP/RFP Relative Abundance [2, 7]	DC50 [2] [nM]	TR-FRET-IKZF2 (Normalized to CC-885) [3, 8]	TR-FRET-IKZF2 (Normalized to CC-885) [3, 9]	TR-FRET-IKZF2 (Normalized to CC-885) [3, 10]	DC50 [4] [nM]	GSPT1 GFP/RFP Relative Abundance [4, 5]	GSPT1 GFP/RFP Relative Abundance [4, 6]	GSPT1 GFP/RFP Relative Abundance [4, 7]	potency of IKZF1 degradation, in words ([1]; Table 3 summary)
Cc1ccc(NC(=O)N[C@@H](C)c2cccc(NC3=CC(=O)N(C4CCC(=O)NC4=O)C3=O)c2)cc1Cl (stereo partly drawn) [Compound 71, 1-(3-chloro-4-methylphenyl)-3-((1S)-1-(3-((1-(2,6-dioxopiperidin-3-yl)-2,5-dioxo-2,5-dihydro-1H-pyrrol-3-yl)amino)phenyl)ethyl)urea]	0.088	0.086	0.076	2.1	most potent against IKZF2	0.016	0.018	0.019	1.9	1.811	1.675	1.657	> 1000				
Cc1ccc(NC(=O)CCc2cccc(NC3=CC(=O)N(C4CCC(=O)NC4=O)C3=O)c2)cc1Cl (centres unmarked) [Compound 53, N-(3-chloro-4-methylphenyl)-3-(3-((1-(2,6-dioxopiperidin-3-yl)-2,5-dioxo-2,5-dihydro-1H-pyrrol-3-yl)amino)phenyl)propanamide]	0.110	0.077	0.078			0.030	0.022	0.029		1.708	1.574	1.455		0.232	0.982	0.931	
Cc1ccc(NC(=O)Cc2cccc(NC3=CC(=O)N(C4CCC(=O)NC4=O)C3=O)c2)cc1Cl (centres unmarked) [Compound 50, N-(3-chloro-4-methylphenyl)-2-(3-((1-(2,6-dioxopiperidin-3-yl)-2,5-dioxo-2,5-dihydro-1H-pyrrol-3-yl)amino)phenyl)acetamide]	0.073	0.068	0.093			0.188	0.195	0.267		1.011	0.889	0.848		0.645	0.702	0.643	
Cc1ccc(NC(=O)NCc2cccc(NC3=CC(=O)N(C4CCC(=O)NC4=O)C3=O)c2)cc1C (centres unmarked) [Compound 58, 1-(3,4-dimethylphenyl)-3-(3-((1-(2,6-dioxopiperidin-3-yl)-2,5-dioxo-2,5-dihydro-1H-pyrrol-3-yl)amino)benzyl)urea]	0.075	0.070	0.074			0.064	0.077	0.122		1.184	1.061	0.927		0.421	0.603	0.594	
Cc1ccc(NCc2cccc(NC3=CC(=O)N(C4CCC(=O)NC4=O)C3=O)c2)cc1Cl (centres unmarked) [Compound 63, 3-(3-((3-(((3-chloro-4-methylphenyl)amino)methyl)-phenyl)amino)-2,5-dioxo-2,5-dihydro-1H-pyrrol-1-yl)piperidine-2,6-dione]	0.081	0.068	0.086			0.428	0.339	0.470		0.703	0.649	0.625		0.274	0.722	0.844	
Cc1ccc(NC(=O)OCc2cccc(NC3=CC(=O)N(C4CCC(=O)NC4=O)C3=O)c2)cc1Cl (centres unmarked) [Compound 48, 3-((1-(2,6-dioxopiperidin-3-yl)-2,5-dioxo-2,5-dihydro-1H-pyrrol-3-yl)amino)benzyl (3-chloro-4-methylphenyl)carbamate]	1.041	0.903	1.000			1.053	1.076	1.057		0.140	0.079	0.044		1.591	0.365	0.579	
Cc1ccc(NC(=O)Oc2cccc(NC3=CC(=O)N(C4CCC(=O)NC4=O)C3=O)c2)cc1Cl (centres unmarked) [Compound 51, 3-((1-(2,6-dioxopiperidin-3-yl)-2,5-dioxo-2,5-dihydro-1H-pyrrol-3-yl)amino)phenyl (3-chloro-4-methylphenyl)carbamate]	0.861	1.001	1.026			1.083	1.044	1.024		0.037	0.032	0.017		1.680	0.829	0.775	
Cc1ccc(NC(=O)c2cccc(NC3=CC(=O)N(C4CCC(=O)NC4=O)C3=O)c2)cc1Cl (centres unmarked) [Compound 49, N-(3-chloro-4-methylphenyl)-3-((1-(2,6-dioxopiperidin-3-yl)-2,5-dioxo-2,5-dihydro-1H-pyrrol-3-yl)amino)benzamide]	0.268	0.187	0.314	1.9		0.665	0.612	0.830	7.2	0.801	0.690	0.472	> 1000	0.125	0.055	0.069	most potent against IKZF1
O=C1CCC(N2C(=O)C=C(Nc3cccc(CNC(=O)Nc4ccc(Cl)c(Cl)c4)c3)C2=O)C(=O)N1 (centres unmarked) [Compound 59, 1-(3,4-dichlorophenyl)-3-(3-((1-(2,6-dioxopiperidin-3-yl)-2,5-dioxo-2,5-dihydro-1H-pyrrol-3-yl)amino)benzyl)urea]	0.144	0.097	0.066			0.099	0.072	0.108		1.224	1.165	1.035		0.247	0.734	0.952	
